For one test, the target named is T1, purified HLA DRB1*0901 (Homo sapiens, UniProt P01903+P01911, A100R/A103E/D57H/D86V/F55Y/F60I/F76Y/I96F/K127E/L162R/M171V/P40D/Q125H/Q99R/R33Q/R42F/S133A/S66N/T210M/V115G/W38K/Y107V/Y59G/Y89S).
T1 construct: MHC molecules utilized were purified from EBV transformed homozygous cell lines or single MHC allele transfected 721.221, C1R, or fibroblast lines; made in house; host or cells: EBV transformed homozygous cell lines or single MHC allele transfected 721.221, C1R, or fibroblast lines
Put plainly: HLA-DR radioligand binding inhibition assay, DRB1*0901. The method, then: (§1) Fifteen distinct HLA-DR molecules were used in quantitative assays to measure the binding of peptides to solubilized HLA-DR molecules. […] Briefly, columns of inactivated Sepharose CL4B and Protein A Sepharose were used as pre-columns. HLA-DR molecules were captured by passage of lysates over LB3.1 monoclonal antibody (anti-HLA-DRA) columns. Antibody columns were washed with 10 mM Tris-HCL, pH8.0 with 1% (v/v) NP-40, followed by PBS containing 0.4% (w/v) n-octylglucoside.
(§2) Briefly, 1-10 nM of radiolabeled peptide was co-incubated for 2 days at either room temperature or 37° C. with 1 μM to 1 nM purified HLA-DR molecules in the presence of a cocktail of protease inhibitors. Assays were performed at various pH conditions, ranging from pH 4 to pH 7. […] After incubation, the percentage of HLA-DR-bound radioactivity is determined by capturing HLA-DR/peptide complexes on Optiplates (Packard Instruments, Meriden, Conn.) coated with the LB3.1 antibody and determining bound counts per minute using the TopCount microscintillation counter (Packard Instruments).

The target in another test is T2, purified HLA DRB1*1302 (Homo sapiens, UniProt P01903+P01911, A100E/A169T/K41T/L162R/M171V/P40S/Q125H/Q178H/Q39Y/Q99D/R42S/S66N/T262R/V115G/W38E/Y61H).
T2 construct: MHC molecules utilized were purified from EBV transformed homozygous cell lines or single MHC allele transfected 721.221, C1R, or fibroblast lines; made in house; host or cells: EBV transformed homozygous cell lines or single MHC allele transfected 721.221, C1R, or fibroblast lines
Put plainly: HLA-DR radioligand binding inhibition assay, DRB1*1302. The settings on record: column 6 of second part of Table I. As to the method: as §1, §2

For a further test, the target named is T3, purified HLA DRB1*1201 (Homo sapiens, UniProt P01903+P01911, A100R/A169T/D57E/D86V/F55L/H45Y/K41T/L162R/M171V/P40S/Q125H/Q178H/Q39Y/Q99D/R42G/S66L/T262R/V114A/V67L/W38E/Y59H/Y61H/Y89S).
T3 construct: MHC molecules utilized were purified from EBV transformed homozygous cell lines or single MHC allele transfected 721.221, C1R, or fibroblast lines; made in house; host or cells: EBV transformed homozygous cell lines or single MHC allele transfected 721.221, C1R, or fibroblast lines
Put plainly: HLA-DR radioligand binding inhibition assay, DRB1*1201. The settings on record: column 5 of second part of Table I. The method, then:
as §1, with “n-octylglucoside. […] The pH was reduced to 8.0 and the eluates were concentrated by centrifugation in Centriprep 30 concentrators at 2000 rpm (Amicon, Beverly, Mass.).” for “n-octylglucoside.”
as §2, with “Instruments). […] Competitor peptides are tested in 2-4 complete, independent experiments, at concentrations ranging from 30 μg/mL to 300 pg/mL.” for “Instruments).”

The next test has as its target T4, purified HLA DRB1*0404 (Homo sapiens, UniProt P01903+P01911, A100R/A169T/F76Y/I96L/K127E/L162R/M171V/N62H/P40V/Q125Y/R42H/S133A/S149N/S66Y/V209L/W38E).
T4 construct: MHC molecules utilized were purified from EBV transformed homozygous cell lines or single MHC allele transfected 721.221, C1R, or fibroblast lines; made in house; host or cells: EBV transformed homozygous cell lines or single MHC allele transfected 721.221, C1R, or fibroblast lines
Briefly: HLA-DR radioligand binding inhibition assay, DRB1*0404. The method, then: as §1, with “n-octylglucoside. […] The pH was reduced to 8.0 and the eluates were concentrated by centrifugation in Centriprep 30 concentrators at 2000 rpm (Amicon, Beverly, Mass.).” for “n-octylglucoside.”
as §2, with “Instruments). […] Competitor peptides are tested in 2-4 complete, independent experiments, at concentrations ranging from 30 μg/mL to 300 pg/mL.” for “Instruments).”

The target in the next test is T5, purified HLA DRB1*0101 (Homo sapiens, UniProt P01903+P01911, A100R/D57E/F55L/F60I/F76Y/I96L/L162R/M171V/P40L/Q125E/R42F/V115G/Y59C).
T5 construct: MHC molecules utilized were purified from EBV transformed homozygous cell lines or single MHC allele transfected 721.221, C1R, or fibroblast lines; made in house; host or cells: EBV transformed homozygous cell lines or single MHC allele transfected 721.221, C1R, or fibroblast lines
Put plainly: HLA-DR radioligand binding inhibition assay, DRB1*0101. The settings on record: read-out: IC50 to purified HLA DRB1*0101. The method, then:
as §1, §2

The target in another test is T6, purified HLA DRB4*0101 (Homo sapiens, UniProt P01903+P13762, G164S).
T6 construct: MHC molecules utilized were purified from EBV transformed homozygous cell lines or single MHC allele transfected 721.221, C1R, or fibroblast lines; made in house; host or cells: EBV transformed homozygous cell lines or single MHC allele transfected 721.221, C1R, or fibroblast lines
Put plainly: HLA-DR radioligand binding inhibition assay, DRB4*0101. As to the method: as §1, with “n-octylglucoside. […] The pH was reduced to 8.0 and the eluates were concentrated by centrifugation in Centriprep 30 concentrators at 2000 rpm (Amicon, Beverly, Mass.).” for “n-octylglucoside.”
as §2, with “Instruments). […] Competitor peptides are tested in 2-4 complete, independent experiments, at concentrations ranging from 30 μg/mL to 300 pg/mL.” for “Instruments).”

The target of the next test is T7, purified HLA DRB1*1101 (Homo sapiens, UniProt P01903+P01911, A100R/A169T/A87E/I96F/K41T/L162R/M171V/P40S/Q125H/Q178H/Q39Y/Q99D/R42S/S66Y/T262R/V115G/W38E).
T7 construct: MHC molecules utilized were purified from EBV transformed homozygous cell lines or single MHC allele transfected 721.221, C1R, or fibroblast lines; made in house; host or cells: EBV transformed homozygous cell lines or single MHC allele transfected 721.221, C1R, or fibroblast lines
Briefly: HLA-DR radioligand binding inhibition assay, DRB1*1101. As to the method:
as §1, with “n-octylglucoside. […] The pH was reduced to 8.0 and the eluates were concentrated by centrifugation in Centriprep 30 concentrators at 2000 rpm (Amicon, Beverly, Mass.).” for “n-octylglucoside.”
as §2, with “Instruments). […] Competitor peptides are tested in 2-4 complete, independent experiments, at concentrations ranging from 30 μg/mL to 300 pg/mL.” for “Instruments).”

The target in a further test is T8, purified HLA DRB1*0401 (Homo sapiens, UniProt P01903+P01911, A100K/A169T/F76Y/I96L/K127E/L162R/M171V/N62H/P40V/Q125Y/R42H/S133A/S149N/S66Y/V115G/V209L/W38E).
T8 construct: MHC molecules utilized were purified from EBV transformed homozygous cell lines or single MHC allele transfected 721.221, C1R, or fibroblast lines; made in house; host or cells: EBV transformed homozygous cell lines or single MHC allele transfected 721.221, C1R, or fibroblast lines
Put plainly: HLA-DR radioligand binding inhibition assay, DRB1*0401. As to the method: as §1, with “n-octylglucoside. […] The pH was reduced to 8.0 and the eluates were concentrated by centrifugation in Centriprep 30 concentrators at 2000 rpm (Amicon, Beverly, Mass.).” for “n-octylglucoside.”
as §2, with “Instruments). […] Competitor peptides are tested in 2-4 complete, independent experiments, at concentrations ranging from 30 μg/mL to 300 pg/mL.” for “Instruments).”

Another test addresses T9, purified HLA DRB1*0701 (Homo sapiens, UniProt P01903+P01911, A100R/A102G/A103Q/D57E/D86V/E43K/F76Y/K127E/L162R/M171V/P40G/Q125H/Q99D/R33Q/R42Y/R54Q/S133A/S66F/T210M/V115G/Y107V/Y59L/Y89S).
T9 construct: MHC molecules utilized were purified from EBV transformed homozygous cell lines or single MHC allele transfected 721.221, C1R, or fibroblast lines; made in house; host or cells: EBV transformed homozygous cell lines or single MHC allele transfected 721.221, C1R, or fibroblast lines
Put plainly: HLA-DR radioligand binding inhibition assay, DRB1*0701. The method, then: as §1, §2

In another test the target is T10, purified HLA DRB3*0101 (Homo sapiens, UniProt P01903+P79483).
T10 construct: MHC molecules utilized were purified from EBV transformed homozygous cell lines or single MHC allele transfected 721.221, C1R, or fibroblast lines; made in house; host or cells: EBV transformed homozygous cell lines or single MHC allele transfected 721.221, C1R, or fibroblast lines
Briefly: HLA-DR radioligand binding inhibition assay, DRB3*0101. The method, then: as §1, with “n-octylglucoside. […] The pH was reduced to 8.0 and the eluates were concentrated by centrifugation in Centriprep 30 concentrators at 2000 rpm (Amicon, Beverly, Mass.).” for “n-octylglucoside.”
as §2, with “Instruments). […] Competitor peptides are tested in 2-4 complete, independent experiments, at concentrations ranging from 30 μg/mL to 300 pg/mL.” for “Instruments).”

Like-named read-outs stand apart in the source and are kept apart here. Ends that are not written are not given here.

T2 sequence (P01903 26-254, other chains not shown): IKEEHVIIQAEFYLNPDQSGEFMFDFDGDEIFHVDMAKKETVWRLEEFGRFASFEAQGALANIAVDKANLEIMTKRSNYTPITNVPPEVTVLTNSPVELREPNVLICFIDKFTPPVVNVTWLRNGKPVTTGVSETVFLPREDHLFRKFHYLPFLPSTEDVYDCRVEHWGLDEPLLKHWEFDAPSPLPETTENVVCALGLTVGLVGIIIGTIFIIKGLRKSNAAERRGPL
T7 sequence (P01903 26-254, other chains not shown): as above

For `CSCC[C@H](NC(=O)[C@H](CCCNC(=N)N)NC(=O)[C@H](CO)NC(=O)[C@H](Cc1ccccc1)NC(=O)[C@H](CCC(=O)O)NC(=O)[C@H](CO)NC(=O)[C@@H](NC(=O)[C@H](CC(C)C)NC(=O)[C@H](CCC(=O)O)NC(=O)[C@H](CCCNC(=N)N)NC(=O)[C@@H](N)Cc1ccccc1)C(C)C)C(=O)N[C@@H](C)C(=O)N[C@@H](CCCNC(=N)N)C(=O)N[C@@H](CC(=O)O)C(=O)N1CCC[C@H]1C(=O)O` [Peptide 9019.0096], the IC50 on purified HLA DRB1*0901, on purified HLA DRB1*1302 and on purified HLA DRB1*1201 was greater than 20 µM in each case.

`CC[C@H](C)[C@H](N)C(=O)N[C@@H](CS)C(=O)N[C@H](C(=O)N[C@H](C(=O)N[C@@H](CC(=O)O)C(=O)N[C@H](C(=O)N[C@@H](Cc1ccc(O)cc1)C(=O)N[C@@H](CCSC)C(=O)N[C@H](C(=O)N[C@@H](CCSC)C(=O)N[C@H](C(=O)N[C@@H](CCCCN)C(=O)N[C@@H](CS)C(=O)N[C@@H](Cc1c[nH]c2ccccc12)C(=O)N[C@@H](CCSC)C(=O)O)C(C)C)[C@@H](C)CC)C(C)C)[C@@H](C)CC)[C@@H](C)O` [Peptide 1622.04]: the IC50 at purified HLA DRB1*0404 (read-out: IC50 to purified HLA DRB1*0404, purified HLA DRB1*0404) was greater than 20 µM; at purified HLA DRB1*0101, greater than 20 µM.

On purified HLA DRB4*0101, `CSCC[C@H](NC(=O)[C@H](CC(C)C)NC(=O)[C@H](CCC(=O)O)NC(=O)[C@H](Cc1c[nH]c2ccccc12)NC(=O)[C@@H](NC(=O)[C@@H](NC(=O)[C@@H](NC(=O)CNC(=O)[C@H](Cc1ccc(O)cc1)NC(=O)[C@H](CO)NC(=O)[C@H](Cc1c[nH]c2ccccc12)NC(=O)[C@@H](NC(=O)[C@H](CC(=O)O)NC(=O)[C@@H](N)CO)C(C)C)C(C)C)[C@@H](C)O)C(C)C)C(=O)N[C@H](C(=O)O)[C@@H](C)O` [Peptide 9019.0089] displayed an IC50 greater than 20 µM.

With `CC[C@H](C)[C@H](NC(=O)CNC(=O)[C@H](CC(=O)O)NC(=O)[C@H](Cc1ccc(O)cc1)NC(=O)[C@@H]1CCCN1C(=O)[C@H](CCCCN)NC(=O)[C@H](C)N)C(=O)N1CCC[C@H]1C(=O)N[C@@H](C)C(=O)N[C@@H](CCCNC(=N)N)C(=O)N[C@@H](CCC(=O)O)C(=O)N[C@H](C(=O)N1CCC[C@H]1C(=O)N[C@@H](CC(=O)O)C(=O)N[C@@H](CC(C)C)C(=O)O)[C@@H](C)CC` [Peptide 9019.0092], the IC50 on purified HLA DRB1*0404, at purified HLA DRB1*1101, on purified HLA DRB1*0401 and on purified HLA DRB4*0101 was greater than 20 µM each time.

Regarding KELAVFREKVTEQHR [Peptide 9019.0186], the IC50 on purified HLA DRB1*1302 and on purified HLA DRB1*0701 was greater than 20 µM throughout.

Regarding `CSCC[C@H](NC(=O)[C@H](CCCNC(=N)N)NC(=O)[C@H](CO)NC(=O)[C@H](Cc1ccccc1)NC(=O)[C@H](CCC(=O)O)NC(=O)[C@H](CO)NC(=O)[C@@H](NC(=O)[C@H](CC(C)C)NC(=O)[C@H](CCC(=O)O)NC(=O)[C@H](CCCNC(=N)N)NC(=O)[C@H](Cc1ccccc1)NC(=O)[C@H](CCCNC(=N)N)NC(=O)[C@@H]1CCCN1C(=O)[C@@H](N)CCCNC(=N)N)C(C)C)C(=O)N[C@@H](C)C(=O)O` [Peptide 9019.0095], at purified HLA DRB3*0101, the IC50 is greater than 20 µM.

(Values after patent publication US10556943B2, “HLA-DR binding peptides and their uses” (priority 2007, dated 2020).)
